Reference: US20130261077A1 (priority 2012, published 2013)

Biological target: T1, FimH-CRD (Escherichia coli, UniProt P08191)
T1 construct: The first 177 amino acids of the FimH protein; thrombin tag (printed as 'fusion protein with thrombin') (cleaved yes); made in house; host or cells: bacteria (pET21b plasmid)
Test: Competitive binding assay by fluorescence polarization, assay 2 (compounds prepared by robotics, plates frozen and thawed)
Procedure, shortened: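 Compounds at 0.4 nM–75 μM final (12 points, 3-fold steps, duplicate) compete with a 5 nM Alexa 647 mannoside probe for 60 nM FimH-CRD; 5 h room-temperature incubation in pH 7.0 Tris buffer with 2.5% DMSO, FP read-out, Kd from fitted curves. Assay 1 uses manual dilution, assay 2 robot-made frozen/thawed plates.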

T1 sequence (P08191 22-177): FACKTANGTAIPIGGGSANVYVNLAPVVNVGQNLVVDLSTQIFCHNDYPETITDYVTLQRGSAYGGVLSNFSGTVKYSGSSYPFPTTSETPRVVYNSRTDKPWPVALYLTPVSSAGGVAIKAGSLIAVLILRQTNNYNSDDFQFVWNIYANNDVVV

Row | SMILES | Kd [nM]
1 | OC[C@H]1O[C@H](c2cccc(/C=C/c3cc(Cl)cc(Cl)c3)c2)[C@@H](O)[C@@H](O)[C@@H]1O [Compound 138, (2R,3S,4R,5S,6R)-2-[3-[(E)-2-(3,5-dichlorophenyl)vinyl]phenyl]-6-(hydroxymethyl)tetrahydropyran-3,4,5-triol] | 32.9 ± 6.3
2 | OC[C@H]1O[C@H](c2cccc(/C=C/c3ccccc3)c2)[C@@H](O)[C@@H](O)[C@@H]1O [Compound 140, (2R,3S,4R,5S,6R)-2-(hydroxymethyl)-6-[3-[(E)-styryl]phenyl]tetrahydropyran-3,4,5-triol] | 15.3 ± 3.5
3 | CNC(=O)c1ccc(-c2cccc([C@H]3O[C@H](CO)[C@@H](O)[C@H](O)[C@@H]3O)c2)cc1-n1cncn1 [Compound 141, N-methyl-2-(1,2,4-triazol-1-yl)-4-[3-[(2R,3S,4R,5S,6R)-3,4,5-trihydroxy-6-(hydroxymethyl)tetrahydropyran-2-yl]phenyl]benzamide] | 56.2 ± 20
4 | COCc1cc(-c2cccc([C@H]3O[C@H](CO)[C@@H](O)[C@H](O)[C@@H]3O)c2)ccc1-c1nnc(C)o1 [Compound 142, (2R,3S,4R,5S,6R)-2-(hydroxymethyl)-6-[3-[3-(methoxymethyl)-4-(5-methyl-1,3,4-oxadiazol-2-yl)phenyl]phenyl]tetrahydropyran-3,4,5-triol] | 14.8 ± 5.9
5 | Cc1nnc(-c2ccc(-c3cccc([C@H]4O[C@H](CO)[C@@H](O)[C@H](O)[C@@H]4O)c3)cc2O)o1 [Compound 143, (2R,3S,4R,5S,6R)-2-(hydroxymethyl)-6-[3-[3-hydroxy-4-(5-methyl-1,3,4-oxadiazol-2-yl)phenyl]phenyl]tetrahydropyran-3,4,5-triol] | 11.2 ± 1
6 | COC(=O)c1ccc2nc(-c3cccc([C@H]4O[C@H](CO)[C@@H](O)[C@H](O)[C@@H]4O)c3)ccc2c1 [Compound 144, Methyl 2-[3-[(2R,3S,4R,5S,6R)-3,4,5-trihydroxy-6-(hydroxymethyl)tetrahydropyran-2-yl]phenyl]quinoline-6-carboxylate] | 18.3 ± 7.5
7 | CNC(=O)c1ccc2nc(-c3cccc([C@H]4O[C@H](CO)[C@@H](O)[C@H](O)[C@@H]4O)c3)ccc2c1 [Compound 145, N-Methyl 2-[3-[(2R,3S,4R,5S,6R)-3,4,5-trihydroxy-6-(hydroxymethyl)tetrahydropyran-2-yl]phenyl]quinoline-6-carboxylate] | 22.4 ± 4.7
8 | OCc1nc2cc(-c3cccc([C@H]4O[C@H](CO)[C@@H](O)[C@H](O)[C@@H]4O)c3)ccc2[nH]1 [Compound 146, (2R,3S,4R,5S,6R)-2-(Hydroxymethyl)-6-[3-[2-(hydroxymethyl)-1H-benzimidazol-5-yl]phenyl]tetrahydropyran-3,4,5-triol] | 27.8 ± 10.8
9 | OC[C@H]1O[C@H](c2cccc(-c3ccc4[nH]c(O)nc4c3)c2)[C@@H](O)[C@@H](O)[C@@H]1O [Compound 147, (2R,3S,4R,5S,6R)-2-[3-(2-Hydroxy-1H-benzimidazol-5-yl)phenyl]-6-(hydroxymethyl)tetrahydropyran-3,4,5-triol] | 10.9 ± 4
10 | OC[C@H]1O[C@H](c2cccc(-c3ccc4[nH]c(C(F)(F)F)nc4c3)c2)[C@@H](O)[C@@H](O)[C@@H]1O [Compound 148, (2R,3S,4R,5S,6R)-2-(Hydroxymethyl)-6-[3-[2-(trifluoromethyl)-1H-benzimidazol-5-yl]phenyl]tetrahydropyran-3,4,5-triol] | 25.1 ± 12
11 | CCCCn1cnc2ccc(-c3cccc([C@H]4O[C@H](CO)[C@@H](O)[C@H](O)[C@@H]4O)c3)cc21 [Compound 149, (2R,3S,4R,5S,6R)-2-[3-(3-Butylbenzimidazol-5-yl)phenyl]-6-(hydroxymethyl)tetrahydropyran-3,4,5-triol] | 19.8 ± 11.2
12 | Cc1nnc(-c2ccc(-c3cccc([C@H]4O[C@H](CO)[C@@H](O)[C@H](O)[C@@H]4O)c3)cc2F)o1 [Compound 150, (2R,3S,4R,5S,6R)-2-[3-[3-Fluoro-4-(5-methyl-1,3,4-oxadiazol-2-yl)phenyl]phenyl]-6-(hydroxymethyl)tetrahydropyran-3,4,5-triol] | 25.9 ± 5.1
